Reference: article PMC3606911 (Journal of enzyme inhibition and medicinal chemistry, 2012)
Entries after “also recorded” stand apart in the source; their conditions may differ. Like-named read-outs stand apart in the source and are kept apart here. Each block holds one molecule with its values, some of them ahead of it.

What was measured:
FAAH [1] = target: T1, FAAH (Rattus norvegicus, UniProt P97612); assay: FAAH assay: hydrolysis of [3H]AEA by rat brain homogenates; assay type: biochemical
T1 sequence (P97612 1-579): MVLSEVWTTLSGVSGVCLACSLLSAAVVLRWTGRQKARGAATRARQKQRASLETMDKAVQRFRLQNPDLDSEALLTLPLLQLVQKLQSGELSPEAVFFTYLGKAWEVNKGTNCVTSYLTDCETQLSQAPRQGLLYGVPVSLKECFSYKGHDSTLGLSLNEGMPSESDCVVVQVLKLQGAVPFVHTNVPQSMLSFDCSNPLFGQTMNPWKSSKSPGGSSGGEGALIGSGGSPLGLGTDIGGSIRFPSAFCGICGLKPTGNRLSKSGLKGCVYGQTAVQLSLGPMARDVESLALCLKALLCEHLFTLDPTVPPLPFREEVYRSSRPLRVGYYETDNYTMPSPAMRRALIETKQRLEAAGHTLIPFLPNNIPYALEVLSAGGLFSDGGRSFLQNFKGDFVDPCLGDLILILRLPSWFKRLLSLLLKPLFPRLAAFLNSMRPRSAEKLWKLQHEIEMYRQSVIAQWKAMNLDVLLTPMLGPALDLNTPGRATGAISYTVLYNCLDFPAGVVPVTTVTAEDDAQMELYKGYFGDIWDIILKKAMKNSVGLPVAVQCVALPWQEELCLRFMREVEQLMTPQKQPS

FAAH [2] = conditions: cited from earlier work
COX isoform = conditions: cited from earlier work
[3] = system: acetic acid-induced abdominal stretching; conditions: rats, 20 mg/kg i.p., cited from earlier work
human recombinant COX-2 = target: T2, human recombinant COX-2 (Homo sapiens, UniProt P35354); assay: COX oxygen electrode assay, COX-2; assay type: biochemical; conditions: for Initial activity (% of vehicle control) COX-2 (AEA) / Initial activity (% of vehicle control) COX-2 (AA): vehicle EtOH; for Initial activity (% of vehicle control) COX-2 (AEA): substrate AEA 10 μM; for Initial activity (% of vehicle control) COX-2 (AA): substrate AA 10 μM
T2 sequence (P35354 18-604): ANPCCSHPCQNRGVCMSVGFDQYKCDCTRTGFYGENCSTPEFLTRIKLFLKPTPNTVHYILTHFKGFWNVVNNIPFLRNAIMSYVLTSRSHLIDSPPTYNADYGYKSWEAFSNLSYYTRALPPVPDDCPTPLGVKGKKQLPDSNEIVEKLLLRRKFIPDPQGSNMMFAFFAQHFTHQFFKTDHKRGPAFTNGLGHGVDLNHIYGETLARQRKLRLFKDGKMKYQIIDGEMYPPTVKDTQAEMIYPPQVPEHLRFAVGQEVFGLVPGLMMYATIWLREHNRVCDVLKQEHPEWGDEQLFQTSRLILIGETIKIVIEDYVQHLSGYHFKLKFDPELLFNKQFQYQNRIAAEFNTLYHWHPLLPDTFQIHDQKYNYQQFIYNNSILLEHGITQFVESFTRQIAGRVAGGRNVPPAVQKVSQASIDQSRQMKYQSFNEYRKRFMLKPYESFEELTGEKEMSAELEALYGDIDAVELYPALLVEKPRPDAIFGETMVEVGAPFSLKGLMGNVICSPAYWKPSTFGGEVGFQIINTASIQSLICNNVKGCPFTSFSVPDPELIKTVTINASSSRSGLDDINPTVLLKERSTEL

ovine COX-1 = target: T3, ovine COX-1 (Ovis aries, UniProt P05979); assay: COX oxygen electrode assay, COX-1; assay type: biochemical; conditions: for Initial activity (% of vehicle control) COX-1 (AEA): substrate 10 μM
T3 sequence (P05979 25-600): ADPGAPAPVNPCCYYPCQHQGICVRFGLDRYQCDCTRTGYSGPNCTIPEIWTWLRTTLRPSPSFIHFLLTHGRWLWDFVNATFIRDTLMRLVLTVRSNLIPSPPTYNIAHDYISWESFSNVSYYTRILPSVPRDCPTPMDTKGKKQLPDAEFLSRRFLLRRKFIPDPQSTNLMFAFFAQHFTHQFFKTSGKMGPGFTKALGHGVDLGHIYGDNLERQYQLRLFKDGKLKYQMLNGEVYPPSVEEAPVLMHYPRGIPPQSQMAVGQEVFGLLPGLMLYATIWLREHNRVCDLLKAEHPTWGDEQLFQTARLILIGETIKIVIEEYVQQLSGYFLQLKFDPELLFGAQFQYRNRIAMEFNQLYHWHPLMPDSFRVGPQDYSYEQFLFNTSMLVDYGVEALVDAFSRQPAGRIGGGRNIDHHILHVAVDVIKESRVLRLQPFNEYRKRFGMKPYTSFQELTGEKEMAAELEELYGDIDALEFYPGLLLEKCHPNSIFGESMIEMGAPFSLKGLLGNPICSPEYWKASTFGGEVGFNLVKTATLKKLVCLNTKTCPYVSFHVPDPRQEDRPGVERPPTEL

[4] = cited from earlier work
[5] = system: acetic acid-induced abdominal stretching (visceral nociception); assay: Acetic acid-induced abdominal stretching test; assay type: in vivo; conditions: mice, 30 mg/kg s.c., 30 min before acetic acid
[6] = system: acetic acid-induced abdominal stretching; conditions: mice, 10 and 30 mg/kg s.c.; cited from earlier work
[7] = read-out: inhibition of the cyclooxygenation of AA by COX-2

Max inhibition % (FAAH [1]; solvent DMSO): 90±3%
Compound: Cc1cccnc1NC(=O)CCNC(=O)C(C)c1ccc(CC(C)C)cc1 (centres unmarked) [Compound 11, 2-(4-Isobutylphenyl)-N-(3-(3-methylpyridin-2-ylamino)-3-oxopropyl)propanamide]

Max inhibition % (FAAH [1]; solvent EtOH): 100%
Compound: Cc1cccnc1OC(=O)C(C)c1ccc(CC(C)C)cc1 (centres unmarked) [Compound 3, 3-methylpyridin-2-yl 2-(4-isobutylphenyl)propanoate]

Max inhibition % (FAAH [1]; solvent EtOH): 100%
Compound: Cc1cccc(NC(=O)CNC(=O)C(C)c2ccc(CC(C)C)cc2)n1 (centres unmarked) [Compound 10, 2-(4-Isobutylphenyl)-N-(2-(6-methylpyridin-2-ylamino)-2-oxoethyl)propanamide]

Max inhibition % (FAAH [1]; solvent DMSO): 100%
Compound: CC(C)Cc1ccc(C(C)C(=O)NCC(=O)NCc2ccccn2)cc1 (centres unmarked) [Compound 12, 2-(4-Isobutylphenyl)-N-(2-oxo-2-(pyridin-2-ylmethylamino)ethyl)propanamide]

Compound: CC(=O)Nc1ccc(OC(=O)C(C)c2ccc(Nc3ccnc(C(F)(F)F)c3)cc2)cc1 (centres unmarked) [4-acetamidophenyl 2-(4-(2-(trifluoromethyl)pyridin-4-ylamino)phenyl)propanoate, reference compound]
IC50 (FAAH [2]; read-out: IC50 FAAH): 0.1 µM
inhibition of COX isoforms (COX isoform): did not inhibit either COX isoform

Compound: CC(C)Cc1ccc(C(C)C(=O)O)cc1 (centres unmarked) [Compound 1, Ibuprofen, reference compound]
activity in the acetic acid-induced abdominal stretching test [3]: significantly less effective than 20 mg/kg of 2

Max inhibition % (FAAH [1]; solvent DMSO): 81±8%
Compound: CC(C)Cc1ccc(C(C)C(=O)NCC(=O)NCc2cccnc2)cc1 (centres unmarked) [Compound 13, 2-(4-Isobutylphenyl)-N-(2-oxo-2-(pyridin-3-ylmethylamino)ethyl)propanamide]

IC50 (human recombinant COX-2): ~10 µM
inhibition at 100 µM (human recombinant COX-2; [7]): 18%
Initial activity (% of vehicle control) COX-2 (AEA) (human recombinant COX-2; compound 3 μM): 83±8 (3) % of vehicle control
Initial activity (% of vehicle control) COX-2 (AEA) (human recombinant COX-2; compound 50 μM): −11±4 (3) % of vehicle control
Initial activity (% of vehicle control) COX-2 (AA) (human recombinant COX-2; compound 100 μM): 82±5 (4) % of vehicle control
IC50 (ovine COX-1): ~50 µM
Initial activity (% of vehicle control) COX-1 (AEA) (ovine COX-1; vehicle EtOH, compound 20 μM): 76±8 (3) % of vehicle control
Initial activity (% of vehicle control) COX-1 (AEA) (ovine COX-1; vehicle EtOH, compound 50 μM): 56±4 (3) % of vehicle control
Initial activity (% of vehicle control) COX-1 (AEA) (ovine COX-1; vehicle EtOH, compound 100 μM): 23±4 (3) % of vehicle control
Compound: Cc1cccnc1NC(=O)CNC(=O)C(C)c1ccc(CC(C)C)cc1 (centres unmarked) [Compound 9, 2-(4-Isobutylphenyl)-N-(2-(3-methylpyridin-2-ylamino)-2-oxoethyl)propanamide]

Compound: Cc1cccnc1NC(=O)C(C)c1ccc(CC(C)C)cc1 (centres unmarked) [Compound 2, N-(3-methylpyridin-2-yl)-2-(4′-isobutylphenyl)propionamide]
IC50 (human recombinant COX-2): ~19 µM
inhibition at 300 µM (human recombinant COX-2; [7]): 41%
Initial activity (% of vehicle control) COX-2 (AEA) (human recombinant COX-2; compound 3 μM): 111±15 (6) % of vehicle control
Initial activity (% of vehicle control) COX-2 (AEA) (human recombinant COX-2; compound 10 μM): 77±10 (3) % of vehicle control
Initial activity (% of vehicle control) COX-2 (AEA) (human recombinant COX-2; compound 20 μM): 51±17 (3) % of vehicle control
Initial activity (% of vehicle control) COX-2 (AEA) (human recombinant COX-2; compound 50 μM): 0.7±9 (4) % of vehicle control
Initial activity (% of vehicle control) COX-2 (AA) (human recombinant COX-2; compound 100 μM): 88±8 (3) % of vehicle control
Initial activity (% of vehicle control) COX-2 (AA) (human recombinant COX-2; compound 300 μM): 59±4 (4) % of vehicle control
mode of inhibition of FAAH (FAAH [2]): acts non-competitively
orders of magnitude more potent as an inhibitor of FAAH than ibuprofen (FAAH [2]): 2–3 orders of magnitude
COX isoform selectivity with AA as substrate (ovine COX-1; AA as substrate, COX-1 vs COX-2): COX-1 selective
IC50 (ovine COX-1; IC50 COX-1 (approximate), AA 10 μM as substrate, DMSO as vehicle): ~240 µM
IC50 (ovine COX-1; IC50 COX-1 (approximate), AA 10 μM as substrate, ethanol as vehicle): ~60 µM
Initial activity (% of vehicle control) COX-1 (AEA) (ovine COX-1; vehicle DMSO, compound 20 μM): 106±15 (3) % of vehicle control
Initial activity (% of vehicle control) COX-1 (AEA) (ovine COX-1; vehicle DMSO, compound 50 μM): 82±4 (6) % of vehicle control
Initial activity (% of vehicle control) COX-1 (AEA) (ovine COX-1; vehicle DMSO, compound 100 μM): 63±6 (6) % of vehicle control
Initial activity (% of vehicle control) COX-1 (AEA) (ovine COX-1; vehicle DMSO, compound 200 μM): 59±8 (6) % of vehicle control
Initial activity (% of vehicle control) COX-1 (AEA) (ovine COX-1; vehicle DMSO, compound 400 μM): 36±0.9 (3) % of vehicle control
Initial activity (% of vehicle control) COX-1 (AEA) (ovine COX-1; vehicle EtOH, compound 20 μM): 70±6 (3) % of vehicle control
Initial activity (% of vehicle control) COX-1 (AEA) (ovine COX-1; vehicle EtOH, compound 50 μM): 57±0.6 (3) % of vehicle control
Initial activity (% of vehicle control) COX-1 (AEA) (ovine COX-1; vehicle EtOH, compound 100 μM): 45±8 (3) % of vehicle control
Initial activity (% of vehicle control) COX-1 (AEA) (ovine COX-1; vehicle EtOH, compound 200 μM): 14±4 (3) % of vehicle control
fold more potent than 1 as an FAAH inhibitor (FAAH [1]): approximately 250 fold
FAAH/COX-1 potency ratio, ratio for 1 set to unity (FAAH [1]; higher number = increased FAAH inhibitory potency relative to COX-1 potency): ~ 500
Max inhibition % (FAAH [1]; solvent DMSO): 100%
Max inhibition % (FAAH [1]; solvent EtOH): 100%
acute ulcerogenesis [4]: much lower than seen with 1
activity in the acetic acid-induced abdominal stretching test ([3]; 20 mg/kg): has analgesic activity; also recorded: significantly greater reduction in stretching than the same dose of 1
number of abdominal stretches elicited by acetic acid [5]: active in vivo; also recorded: decreased the number of abdominal stretches
activity in the acetic acid-induced abdominal stretching test [6]: has analgesic activity; also recorded: greater than for a dose of 10 mg/kg s.c. and for 30 mg/kg of diclofenac
